From US7470815B1, “Selective neuronal nitric oxide synthase inhibitors” (Northwestern University, priority 2006, dated 2008)
Non-standard residues stand in square brackets, D forms with d. Residues, ends and D or L forms follow the SMILES beside them. dArg(NO2) = N=C(NCCC[C@@H](N)C(=O)O)N[N+](=O)[O-]

Tests used:
[1] = target: T1, recombinant rat nNOS (Rattus norvegicus, UniProt P29476); assay: NOS hemoglobin capture assay, inhibition of nNOS; format: biochemical; details: Dixon analysis and method of Cornish and Bowden
T1 construct: made in house; host or cells: E. coli

[2] = target: T1, recombinant rat nNOS; details: prior art compound; cited from earlier work

Compound | type of inhibition of nNOS [1] | selectivity for nNOS over iNOS [2] [fold]
N=C(NCCC[C@H](N)CNc1ccccc1CCN)N[N+](=O)[O-] [Compound 26, N-(4S)-{4-Amino-5-[2-(2-aminoethyl)phenylamino]-pentyl}-N′-nitroguanidine] | competitive inhibition | –
COC(=O)[C@@H](CCCN=C(N)N[N+](=O)[O-])NC(=O)[C@H](N)Cc1ccccc1 [D-Phe-D-Arg^NO2-OMe] (H-[dF]-[dArg(NO2)]-OMe) | – | 1800
